Assay results published in US20170121687A1, “METHODS OF CELLULAR REPROGRAMMING” (Agency for Science, Technology and Research, priority 2014, published 2017).

B1: KGF: keratinocyte growth factor (protein, UniProt P21781 32-194, looked up)
Fibroblast growth factor 7: CNDMTPEQMATNVNCSSPERHTRSYDYMEGGDIRVRRLFCRTQWYLRIDKRGKVKGTQEMKNNYNIMEIRTVAVGIVAIKGVESEFYLAMNKEGKLYAKKECNEDCNFKELILENHYNTYASAKWTHNGGEMFVALNQKGIPVRGKKTKKEQKTAHFLPMAIT

Test system: IMR90
Assay: Integrin ligation step with other extracellular matrices and growth factors after antibody induction
Assay type: cell-based, human
Settings: FIG. 12-15
Method: Cells were detached using conventional cell culture techniques and 60000 suspended cells in 100 μL media were incubated with 2 μg of each of the following antibodies—Anti-Integrin alpha V [272-17E6] (Abcam, USA), Anti-Integrin alpha 5 [P1D6]—Azide free (Abcam, USA), Anti-Integrin beta 3 antibody [25E11], Anti-Integrin αV/β5 (P1F6) L (Santa Cruz Biotechnology, USA), Anti-Integrin αVβ6, clone 10D5 (Merck, USA)—for 30 minutes in a 37° C. incubator. Control antibody used was normal mouse IgG1 antibody (Santa Cruz Biotechnology, USA). The volume of the cell suspension was brought up to 250 μL for subsequent seeding in a 48-well tissue culture plate. Two days after antibody treatment, extracellular matrix was added into the media. Reprogramming of U251 cells followed a modified procedure, where a 3-antibody combination comprising Anti-Integrins αv, αvβ5 and αvβ6 was used. Two days after antibody treatment, the cells were transferred to ECM that had been pre-coated onto the culture wells. Extracellular matrices used are basement membrane matrix, Geltrex (Life Technologies, USA), laminin 332 and laminin 511 (Biolamina, Sweden). One day after addition of extracellular matrix, the media was changed to one of the following growth factors-supplemented media—1) SKP media made up of DMEM/F12 (Life Technologies, USA) supplemented with 1× B27 supplement (Life Technologies, USA), 40 ng/mL bFGF, 20 ng/mL EGF (Life Technologies, USA); 2) mTESR2 (Stemcell Technologies, USA).
Cells were lysed for RNA using TRIzol® Reagent (Invitrogen, USA) following manufacturer's instructions. Purified RNA was reverse transcribed into cDNA using iScript™ cDNA synthesis kit (Bio-Rad, USA). The reaction was carried out in a 20 μL volume containing 4 μL 5× iScript reaction mix, 1 μL iScript reverse transcriptase, RNA template (≦1000 ng total RNA) and nuclease free water (variable). The complete reaction mix was incubated for at 5 minutes at 25° C., 30 minutes at 42° C., 5 minutes at 85° C. followed by holding at 4° C. (optional).
Reaction was performed on iQ5 multi-colour real-time PCR detection system (Bio-Rad, USA) using the iTaq™ Universal SYBR® Green supermix (Bio-Rad, USA). The 20 μL volume reaction component includes 10 μL iTaq™ Universal SYBR® Green supermix, 1 μL of primer mix (5 μM forward primer, 5 μM reverse primer), 1 to 100 ng template and nuclease free water (variable).
The reaction conditions were as follows: 30 sec at 95° C., followed by 40 cycles of 15 sec at 95° C. and 30 sec at 60° C. […] Relative quantization of target mRNA expression, normalized to an endogenous control and relative to a calibrator, was calculated using the mathematical expression for fold change 2-ΔΔCt (fold change).

Molecule | expression of MET and stemness markers
HGF: hepatocyte growth factor | reduced expression of both MET and stemness markers
Laminin 511: extracellular matrix (Biolamina, Sweden) used during the integrin ligation step | positively influenced
Laminin 521: extracellular matrix used during the integrin ligation step | positively influenced
B1 | did not appear to significantly affect
